From ChEMBL document CHEMBL4507260 (2021)

Tests used:
Details in all cases: Compound concentration 1000.0 nM
[1] = target: Serine/threonine-protein kinase N2 (Homo sapiens) (UniProt Q16513)
[2] = target: Tyrosine-protein kinase Blk (Homo sapiens) (UniProt P51451)
[3] = target: Ephrin type-A receptor 4 (Homo sapiens) (UniProt P54764)
[4] = target: Rho-associated protein kinase 1 (Homo sapiens) (UniProt Q13464)
[5] = target: Tyrosine-protein kinase BTK (Homo sapiens) (UniProt Q06187)
[6] = target: Serine/threonine-protein kinase SIK1 (Homo sapiens) (UniProt P57059)
[7] = target: Mitotic checkpoint serine/threonine-protein kinase BUB1 (Homo sapiens) (UniProt O43683)
[8] = target: RAC-alpha serine/threonine-protein kinase (Homo sapiens) (UniProt P31749)
[9] = target: Mitogen-activated protein kinase kinase kinase 12 (Homo sapiens) (UniProt Q12852)
[10] = system: Epidermal growth factor receptor (Homo sapiens), P00533 [L858R]
[11] = system: Phosphatidylinositol 4,5-bisphosphate 3-kinase catalytic subunit alpha isoform (Homo sapiens), P42336 [H1047Y]
[12] = target: Atypical kinase COQ8B, mitochondrial (Homo sapiens) (UniProt Q96D53)
[13] = target: Serine/threonine-protein kinase ULK1 (Homo sapiens) (UniProt O75385)
[14] = target: Serine/threonine-protein kinase Nek2 (Homo sapiens) (UniProt P51955)
[15] = system: Receptor-type tyrosine-protein kinase FLT3 (Homo sapiens), P36888 [D835V]
[16] = system: Proto-oncogene tyrosine-protein kinase receptor Ret (Homo sapiens), P07949 [V804L]
Sequence of Proto-oncogene tyrosine-protein kinase receptor Ret (Homo sapiens), P07949 [V804L] (P07949 whole entry V804L): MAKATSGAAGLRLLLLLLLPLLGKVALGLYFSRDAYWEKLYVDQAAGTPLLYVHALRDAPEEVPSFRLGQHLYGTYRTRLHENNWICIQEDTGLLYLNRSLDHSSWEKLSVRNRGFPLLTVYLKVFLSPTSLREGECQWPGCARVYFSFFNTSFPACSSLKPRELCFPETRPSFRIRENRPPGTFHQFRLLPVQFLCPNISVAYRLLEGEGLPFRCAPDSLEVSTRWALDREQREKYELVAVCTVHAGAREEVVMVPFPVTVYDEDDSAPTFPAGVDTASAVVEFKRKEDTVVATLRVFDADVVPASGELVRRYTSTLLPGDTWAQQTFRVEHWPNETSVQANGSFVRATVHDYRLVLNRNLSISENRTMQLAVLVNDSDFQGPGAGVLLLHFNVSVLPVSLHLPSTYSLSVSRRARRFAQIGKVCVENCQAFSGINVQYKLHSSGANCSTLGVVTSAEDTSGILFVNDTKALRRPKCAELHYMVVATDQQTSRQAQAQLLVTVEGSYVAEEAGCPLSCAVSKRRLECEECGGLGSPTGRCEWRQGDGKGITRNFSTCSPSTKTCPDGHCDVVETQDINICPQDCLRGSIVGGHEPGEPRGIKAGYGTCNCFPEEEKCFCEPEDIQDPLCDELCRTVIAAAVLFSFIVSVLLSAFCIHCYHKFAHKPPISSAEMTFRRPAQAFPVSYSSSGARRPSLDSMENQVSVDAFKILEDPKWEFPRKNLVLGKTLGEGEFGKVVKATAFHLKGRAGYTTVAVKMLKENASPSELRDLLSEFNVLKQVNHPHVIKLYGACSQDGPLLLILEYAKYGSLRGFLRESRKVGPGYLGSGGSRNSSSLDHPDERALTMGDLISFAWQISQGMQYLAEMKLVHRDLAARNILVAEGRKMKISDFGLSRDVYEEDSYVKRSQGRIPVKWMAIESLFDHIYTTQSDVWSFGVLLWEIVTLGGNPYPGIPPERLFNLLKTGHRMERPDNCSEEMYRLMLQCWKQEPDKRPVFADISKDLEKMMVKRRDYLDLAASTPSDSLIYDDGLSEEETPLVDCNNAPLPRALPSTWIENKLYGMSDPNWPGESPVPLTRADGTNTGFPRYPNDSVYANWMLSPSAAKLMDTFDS

[17] = target: Proto-oncogene tyrosine-protein kinase receptor Ret (Homo sapiens) (UniProt P07949)
Sequence of Proto-oncogene tyrosine-protein kinase receptor Ret (Homo sapiens) (P07949 whole entry): as the sequence (P07949 whole entry V804L) above, with L804V counted along it

[18] = system: Epidermal growth factor receptor (Homo sapiens), P00533 [UNDEFINED MUTATION]
[19] = target: Platelet-derived growth factor receptor beta (Homo sapiens) (UniProt P09619)
[20] = target: Serine/threonine-protein kinase RIO2 (Homo sapiens) (UniProt Q9BVS4)
[21] = system: Serine/threonine-protein kinase B-raf (Homo sapiens), P15056 [V600E]
[22] = target: Mitogen-activated protein kinase kinase kinase 4 (Homo sapiens) (UniProt Q9Y6R4)
[23] = target: Serine/threonine-protein kinase Chk1 (Homo sapiens) (UniProt O14757)
[24] = target: Serine/threonine-protein kinase MARK1 (Homo sapiens) (UniProt Q9P0L2)
[25] = target: Mitogen-activated protein kinase 11 (Homo sapiens) (UniProt Q15759)
[26] = system: Epidermal growth factor receptor (Homo sapiens), P00533 [UNDEFINED MUTATION]; remark: listed apart in the source
[27] = target: Serine/threonine-protein kinase 35 (Homo sapiens) (UniProt Q8TDR2)
[28] = target: Cyclin-dependent kinase 4 (Homo sapiens) (UniProt P11802)
Sequence of Cyclin-dependent kinase 4 (Homo sapiens) (P11802 whole entry): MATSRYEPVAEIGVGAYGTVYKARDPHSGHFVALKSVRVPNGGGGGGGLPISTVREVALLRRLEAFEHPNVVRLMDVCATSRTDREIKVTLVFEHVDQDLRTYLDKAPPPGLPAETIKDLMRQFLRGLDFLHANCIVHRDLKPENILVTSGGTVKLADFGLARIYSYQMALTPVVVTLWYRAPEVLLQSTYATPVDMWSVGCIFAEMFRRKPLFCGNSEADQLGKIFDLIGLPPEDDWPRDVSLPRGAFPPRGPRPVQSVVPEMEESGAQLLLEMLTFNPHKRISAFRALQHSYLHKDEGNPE

[29] = system: Epidermal growth factor receptor (Homo sapiens), P00533 [L861Q]
[30] = system: Phosphatidylinositol 4,5-bisphosphate 3-kinase catalytic subunit alpha isoform (Homo sapiens), P42336 [Q546K]
[31] = target: TRAF2 and NCK-interacting protein kinase (Homo sapiens) (UniProt Q9UKE5)
Sequence of TRAF2 and NCK-interacting protein kinase (Homo sapiens) (Q9UKE5 whole entry, looked up): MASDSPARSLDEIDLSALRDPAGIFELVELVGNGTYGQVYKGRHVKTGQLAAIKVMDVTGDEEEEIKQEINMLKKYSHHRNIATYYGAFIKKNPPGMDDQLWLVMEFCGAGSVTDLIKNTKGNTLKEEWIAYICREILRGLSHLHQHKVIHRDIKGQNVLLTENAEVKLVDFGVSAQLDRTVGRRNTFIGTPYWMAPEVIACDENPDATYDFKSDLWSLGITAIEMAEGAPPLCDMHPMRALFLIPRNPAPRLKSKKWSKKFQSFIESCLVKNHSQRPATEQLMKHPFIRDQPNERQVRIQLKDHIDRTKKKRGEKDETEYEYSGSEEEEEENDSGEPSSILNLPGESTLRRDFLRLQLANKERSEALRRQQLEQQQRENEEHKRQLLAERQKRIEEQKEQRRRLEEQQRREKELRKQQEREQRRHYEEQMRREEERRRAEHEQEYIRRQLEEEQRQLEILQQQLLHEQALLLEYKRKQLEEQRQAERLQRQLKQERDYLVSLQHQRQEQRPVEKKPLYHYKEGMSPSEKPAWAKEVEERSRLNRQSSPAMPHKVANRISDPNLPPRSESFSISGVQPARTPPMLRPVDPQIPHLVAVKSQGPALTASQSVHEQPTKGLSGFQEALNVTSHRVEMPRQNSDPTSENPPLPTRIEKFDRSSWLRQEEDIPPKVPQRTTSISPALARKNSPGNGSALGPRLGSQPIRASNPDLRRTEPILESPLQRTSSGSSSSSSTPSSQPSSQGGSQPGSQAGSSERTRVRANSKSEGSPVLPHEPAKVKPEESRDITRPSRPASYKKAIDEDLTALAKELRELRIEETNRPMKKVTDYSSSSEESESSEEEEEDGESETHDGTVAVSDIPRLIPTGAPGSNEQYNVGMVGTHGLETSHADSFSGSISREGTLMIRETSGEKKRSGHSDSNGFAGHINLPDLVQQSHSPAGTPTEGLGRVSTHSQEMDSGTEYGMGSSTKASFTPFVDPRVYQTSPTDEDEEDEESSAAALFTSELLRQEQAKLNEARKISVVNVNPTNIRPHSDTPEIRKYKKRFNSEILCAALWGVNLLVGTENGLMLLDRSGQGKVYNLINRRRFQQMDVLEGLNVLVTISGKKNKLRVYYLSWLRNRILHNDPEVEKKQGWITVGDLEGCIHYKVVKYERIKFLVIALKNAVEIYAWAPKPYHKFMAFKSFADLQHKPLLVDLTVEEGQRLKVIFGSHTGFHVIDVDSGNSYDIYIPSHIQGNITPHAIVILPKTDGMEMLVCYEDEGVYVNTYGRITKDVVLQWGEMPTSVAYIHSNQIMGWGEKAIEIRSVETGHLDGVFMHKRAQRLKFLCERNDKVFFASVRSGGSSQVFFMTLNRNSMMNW

[32] = target: Testis-specific serine/threonine-protein kinase 1 (Homo sapiens) (UniProt Q9BXA7)
[33] = system: Mast/stem cell growth factor receptor Kit (Homo sapiens), P10721 [V559D,T670I]
[34] = system: Epidermal growth factor receptor (Homo sapiens), P00533 [L858R,T790M]
[35] = target: Serine/threonine-protein kinase PAK 5 (Homo sapiens) (UniProt Q9P286)
[36] = target: Serine/threonine-protein kinase Nek7 (Homo sapiens) (UniProt Q8TDX7)
Sequence of Serine/threonine-protein kinase Nek7 (Homo sapiens) (Q8TDX7 whole entry, looked up, canonical isoform): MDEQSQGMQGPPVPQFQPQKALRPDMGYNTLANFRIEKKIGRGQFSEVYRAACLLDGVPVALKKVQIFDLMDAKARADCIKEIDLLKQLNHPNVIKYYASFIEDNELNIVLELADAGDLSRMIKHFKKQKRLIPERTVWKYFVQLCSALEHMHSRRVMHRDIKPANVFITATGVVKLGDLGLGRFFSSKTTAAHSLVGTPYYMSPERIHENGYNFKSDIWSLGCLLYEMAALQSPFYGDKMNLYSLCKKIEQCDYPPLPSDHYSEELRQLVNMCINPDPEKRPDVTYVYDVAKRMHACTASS

[37] = target: Casein kinase I isoform gamma-2 (Homo sapiens) (UniProt P78368)
Sequence of Casein kinase I isoform gamma-2 (Homo sapiens) (P78368 whole entry, looked up, canonical isoform): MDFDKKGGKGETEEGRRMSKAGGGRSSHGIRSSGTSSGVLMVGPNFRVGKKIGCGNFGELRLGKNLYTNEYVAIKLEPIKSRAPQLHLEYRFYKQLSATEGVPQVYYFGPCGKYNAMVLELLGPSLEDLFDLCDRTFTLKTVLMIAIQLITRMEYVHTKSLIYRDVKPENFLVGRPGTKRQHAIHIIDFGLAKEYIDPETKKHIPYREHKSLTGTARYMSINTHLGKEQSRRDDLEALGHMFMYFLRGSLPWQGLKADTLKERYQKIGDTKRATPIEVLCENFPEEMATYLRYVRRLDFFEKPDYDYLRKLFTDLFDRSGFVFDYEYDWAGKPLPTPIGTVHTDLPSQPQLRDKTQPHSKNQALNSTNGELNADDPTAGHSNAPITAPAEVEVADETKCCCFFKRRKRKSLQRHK

[38] = target: Tyrosine-protein kinase Fes/Fps (Homo sapiens) (UniProt P07332)
[39] = target: Activin receptor type-2B (Homo sapiens) (UniProt Q13705)
[40] = target: Leucine-rich repeat serine/threonine-protein kinase 2 (Homo sapiens) (UniProt Q5S007)
[41] = target: Cyclin-dependent kinase 4 (Homo sapiens) (UniProt P11802); remark: listed apart in the source
[42] = system: Tyrosine-protein kinase ABL1 (Homo sapiens), P00519 [F317L]
[43] = target: Myosin light chain kinase family member 4 (Homo sapiens) (UniProt Q86YV6)
[44] = target: Ribosomal protein S6 kinase alpha-4 (Homo sapiens) (UniProt O75676)
[45] = system: Tyrosine-protein kinase ABL1 (Homo sapiens), P00519 [M351T]

Measured: residual activity

Sequence of Tyrosine-protein kinase Blk (Homo sapiens) (P51451 2-505 limits assumed): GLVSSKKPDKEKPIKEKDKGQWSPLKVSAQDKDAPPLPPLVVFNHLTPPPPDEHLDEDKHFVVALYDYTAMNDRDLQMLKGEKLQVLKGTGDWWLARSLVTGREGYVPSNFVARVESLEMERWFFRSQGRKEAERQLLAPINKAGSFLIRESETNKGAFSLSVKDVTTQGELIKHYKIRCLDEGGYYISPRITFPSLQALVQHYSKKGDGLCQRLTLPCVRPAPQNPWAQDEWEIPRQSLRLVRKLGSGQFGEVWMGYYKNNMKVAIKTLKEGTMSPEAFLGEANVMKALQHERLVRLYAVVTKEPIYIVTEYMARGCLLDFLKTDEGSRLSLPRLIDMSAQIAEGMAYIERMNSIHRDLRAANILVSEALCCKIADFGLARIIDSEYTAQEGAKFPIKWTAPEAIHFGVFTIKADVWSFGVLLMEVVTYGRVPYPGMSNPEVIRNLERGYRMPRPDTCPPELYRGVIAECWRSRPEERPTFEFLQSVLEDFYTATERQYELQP
Sequence of Ephrin type-A receptor 4 (Homo sapiens) (P54764 whole entry): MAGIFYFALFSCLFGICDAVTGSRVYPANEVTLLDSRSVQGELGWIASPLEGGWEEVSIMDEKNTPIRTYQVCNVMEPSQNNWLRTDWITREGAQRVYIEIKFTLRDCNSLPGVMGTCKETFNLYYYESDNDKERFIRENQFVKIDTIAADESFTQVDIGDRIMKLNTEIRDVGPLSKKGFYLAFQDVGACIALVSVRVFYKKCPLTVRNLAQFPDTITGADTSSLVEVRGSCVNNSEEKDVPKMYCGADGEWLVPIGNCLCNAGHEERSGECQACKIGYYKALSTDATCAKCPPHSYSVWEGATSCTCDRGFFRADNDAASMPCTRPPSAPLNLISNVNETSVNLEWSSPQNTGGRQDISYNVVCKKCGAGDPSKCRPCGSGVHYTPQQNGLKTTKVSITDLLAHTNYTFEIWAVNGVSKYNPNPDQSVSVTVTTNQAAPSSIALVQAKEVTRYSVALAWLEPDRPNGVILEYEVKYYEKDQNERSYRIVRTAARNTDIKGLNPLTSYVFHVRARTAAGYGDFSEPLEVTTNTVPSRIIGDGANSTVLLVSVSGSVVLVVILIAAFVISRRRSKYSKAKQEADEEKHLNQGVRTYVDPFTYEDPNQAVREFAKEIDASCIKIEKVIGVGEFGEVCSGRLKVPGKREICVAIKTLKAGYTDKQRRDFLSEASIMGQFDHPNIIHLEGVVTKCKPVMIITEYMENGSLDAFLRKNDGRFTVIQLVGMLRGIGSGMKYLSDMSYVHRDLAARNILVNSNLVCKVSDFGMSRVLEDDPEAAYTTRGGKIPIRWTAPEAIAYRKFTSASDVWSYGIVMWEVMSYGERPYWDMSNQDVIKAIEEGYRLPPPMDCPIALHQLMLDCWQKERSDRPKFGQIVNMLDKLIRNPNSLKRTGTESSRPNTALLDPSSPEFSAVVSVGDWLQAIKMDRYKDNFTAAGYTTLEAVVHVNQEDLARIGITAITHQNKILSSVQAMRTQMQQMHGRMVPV

c1ccc(N2CCN(Cc3nc4ccccc4[nH]3)CC2)nc1 [ABT-724]
inactive: [1] 100% | [2] 100% | [3] 100% | [4] 100% | [5] 96% | [6] 100% | [7] 100% | [8] 90% | [9] 97% | [10] 100% | [11] 79% | [12] 100% | [13] 100% | [14] 100% | [15] 88% | [16] 100% | [17] 100% | [18] 90% | [19] 100% | [20] 100% | [21] 100% | [22] 100% | [23] 100% | [24] 100% | [25] 88% | [26] 100% | [27] 100% | [28] 100% | [29] 74% | [30] 100% | [31] 100% | [32] 100% | [33] 95% | [34] 100% | [35] 100% | [36] 100% | [37] 100% | [38] 100% | [39] 100% | [40] 99% | [41] 100% | [42] 100% | [43] 97% | [44] 100% | [45] 100%

CSc1cccnc1N1CCN(Cc2nc3ccccc3[nH]2)CC1 [A-769]
inactive: [1] 62% | [2] 96% | [3] 100% | [4] 93% | [5] 79% | [6] 100% | [7] 90% | [8] 100% | [9] 74% | [10] 100% | [11] 100% | [12] 100% | [13] 88% | [14] 96% | [15] 84% | [16] 98% | [17] 94% | [18] 100% | [19] 100% | [20] 100% | [21] 85% | [22] 100% | [23] 94% | [24] 100% | [25] 100% | [26] 100% | [27] 100% | [28] 82% | [29] 100% | [30] 84% | [31] 100% | [32] 100% | [33] 100% | [34] 91% | [35] 97% | [36] 100% | [37] 99% | [38] 98% | [39] 98% | [40] 97% | [41] 77% | [42] 100% | [43] 100% | [44] 94% | [45] 94%
